Our source for the IC50 values is patent US9279003B2, “Analogs of sodium channel peptide toxin” (priority 2010, dated 2016).

The target of one assay is human Nav1.7 (Homo sapiens, UniProt Q15858). Briefly: cell-based. Type of assay: cell-based.
A further assay deals with Nav1.2 (rBIIa). Type of assay: cell-based, rat.

Where a SMILES comes first, the peptide text is derived from it. Bridges are numbered along the chain shown (N, C = ends). [ ]: non-standard residue; d: D form. αMeL = CC(C)C[C@](C)(N)C(=O)O

By IC50 is commonly meant the concentration at which inhibition is half-maximal.

Sequence of human Nav1.7 (Q15858 other isoform, or with tags, fused parts or gaps): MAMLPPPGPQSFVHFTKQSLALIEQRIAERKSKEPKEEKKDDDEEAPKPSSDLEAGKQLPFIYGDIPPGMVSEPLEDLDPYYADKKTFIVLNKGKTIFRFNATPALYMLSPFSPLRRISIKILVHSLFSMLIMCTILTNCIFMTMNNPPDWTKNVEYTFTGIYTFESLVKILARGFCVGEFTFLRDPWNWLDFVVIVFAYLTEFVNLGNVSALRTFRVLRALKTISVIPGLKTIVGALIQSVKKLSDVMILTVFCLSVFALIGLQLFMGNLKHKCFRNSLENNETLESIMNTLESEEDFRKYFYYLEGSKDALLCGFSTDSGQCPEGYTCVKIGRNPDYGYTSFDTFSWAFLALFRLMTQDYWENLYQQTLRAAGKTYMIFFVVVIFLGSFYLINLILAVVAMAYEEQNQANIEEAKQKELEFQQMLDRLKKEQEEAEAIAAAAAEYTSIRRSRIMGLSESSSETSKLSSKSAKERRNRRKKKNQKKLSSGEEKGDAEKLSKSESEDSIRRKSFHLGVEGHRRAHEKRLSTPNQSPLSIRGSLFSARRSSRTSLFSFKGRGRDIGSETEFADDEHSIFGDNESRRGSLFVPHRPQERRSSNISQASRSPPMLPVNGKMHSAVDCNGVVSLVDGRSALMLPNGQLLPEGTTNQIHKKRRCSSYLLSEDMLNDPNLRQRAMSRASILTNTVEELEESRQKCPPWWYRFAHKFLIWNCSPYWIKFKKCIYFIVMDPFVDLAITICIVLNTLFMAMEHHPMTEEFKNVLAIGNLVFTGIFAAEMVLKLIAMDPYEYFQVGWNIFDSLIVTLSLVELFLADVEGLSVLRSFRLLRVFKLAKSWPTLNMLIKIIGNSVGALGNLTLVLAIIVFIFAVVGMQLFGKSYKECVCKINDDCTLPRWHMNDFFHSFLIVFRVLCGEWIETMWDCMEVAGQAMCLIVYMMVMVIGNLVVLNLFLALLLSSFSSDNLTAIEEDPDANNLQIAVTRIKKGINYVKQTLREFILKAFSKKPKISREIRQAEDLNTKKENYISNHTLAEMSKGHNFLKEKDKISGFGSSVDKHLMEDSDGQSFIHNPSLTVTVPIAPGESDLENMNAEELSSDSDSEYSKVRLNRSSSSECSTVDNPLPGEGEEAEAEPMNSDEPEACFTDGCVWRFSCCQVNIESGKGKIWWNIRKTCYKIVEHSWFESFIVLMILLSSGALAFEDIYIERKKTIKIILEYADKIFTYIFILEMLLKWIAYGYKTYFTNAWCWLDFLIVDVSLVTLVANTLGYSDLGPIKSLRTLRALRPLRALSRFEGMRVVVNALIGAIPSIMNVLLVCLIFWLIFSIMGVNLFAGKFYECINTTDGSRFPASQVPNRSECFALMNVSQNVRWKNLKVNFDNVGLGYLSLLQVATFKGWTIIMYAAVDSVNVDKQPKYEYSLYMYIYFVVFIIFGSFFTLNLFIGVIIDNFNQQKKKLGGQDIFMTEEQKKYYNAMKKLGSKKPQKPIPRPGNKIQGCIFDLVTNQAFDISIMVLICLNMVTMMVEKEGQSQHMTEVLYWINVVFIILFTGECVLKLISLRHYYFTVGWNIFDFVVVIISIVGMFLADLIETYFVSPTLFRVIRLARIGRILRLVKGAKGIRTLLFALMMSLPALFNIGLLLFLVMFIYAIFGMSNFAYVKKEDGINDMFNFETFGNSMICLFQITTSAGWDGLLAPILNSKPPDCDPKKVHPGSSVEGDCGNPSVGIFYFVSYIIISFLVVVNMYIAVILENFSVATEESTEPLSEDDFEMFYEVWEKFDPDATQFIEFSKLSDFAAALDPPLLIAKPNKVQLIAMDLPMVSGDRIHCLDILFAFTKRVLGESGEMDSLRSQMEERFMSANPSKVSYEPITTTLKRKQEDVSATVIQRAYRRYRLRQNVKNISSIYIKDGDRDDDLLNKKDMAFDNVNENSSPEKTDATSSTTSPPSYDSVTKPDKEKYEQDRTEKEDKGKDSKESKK

With `CC[C@H](C)[C@H](NC(=O)[C@H](CC(C)C)NC(=O)[C@H](CCCCN)NC(=O)[C@H](CCCCN)NC(=O)[C@H](CCCCN)NC(=O)[C@@H]1CSSC[C@@H]2NC(=O)[C@H](CCCCN)NC(=O)[C@H](CCCNC(=N)N)NC(=O)[C@H](C)NC(=O)[C@H](CO)NC(=O)[C@H](CC(=O)O)NC(=O)[C@@H]3CSSC[C@H](NC(=O)[C@H](C(C)C)NC(=O)[C@H](CC(C)C)NC(=O)CNC(=O)[C@H](CCC(=O)O)NC(=O)[C@H](CSSC[C@H](NC(=O)[C@@H](N)Cc4ccc(O)cc4)C(=O)N[C@@H](CCC(N)=O)C(=O)N[C@@H](CCCCN)C(=O)N[C@@H](Cc4c[nH]c5ccccc45)C(=O)N[C@@H](CCSC)C(=O)N[C@@H](Cc4c[nH]c5ccccc45)C(=O)N[C@@H]([C@@H](C)O)C(=O)N3)NC2=O)C(=O)N[C@@H](CCCNC(=N)N)C(=O)N[C@@H](CC(C)C)C(=O)N[C@@H](Cc2c[nH]c3ccccc23)C(=O)N1)C(=O)O` [compound 10] (H-YCQKWMWTCDSARKCCEGLVCRLWCKKKLI-OH; disulfide 2-16, 9-21, 15-25), the IC50 against human Nav1.7 amounted to 0.004 µM; with Nav1.2 (rBIIa) it was 0.098 ± 0.01 µM.
Turning to `CSCC[C@@H]1NC(=O)[C@H](Cc2c[nH]c3ccccc23)NC(=O)[C@H](CCCCN)NC(=O)[C@H](CCC(N)=O)NC(=O)[C@@H](NC(=O)[C@@H](N)Cc2ccc(O)cc2)CSSC[C@@H]2NC(=O)[C@@H]3CSSC[C@@H](C(=O)N[C@@H](CCCCN)C(=O)N[C@@H](CCCCN)C(=O)N[C@@H](CCCCN)C(=O)N[C@@](C)(CC(C)C)C(=O)N[C@@H](Cc4c[nH]c5ccccc45)C(=O)O)NC(=O)[C@H](Cc4c[nH]c5ccccc45)NC(=O)[C@H](CC(C)C)NC(=O)[C@H](CCCNC(=N)N)NC(=O)[C@H](CSSC[C@H](NC(=O)[C@H]([C@@H](C)O)NC(=O)[C@H](Cc4c[nH]c5ccccc45)NC1=O)C(=O)N[C@@H](CC(=O)O)C(=O)N[C@@H](CO)C(=O)N[C@@H](C)C(=O)N[C@@H](CCCNC(=N)N)C(=O)N[C@@H](CCCCN)C(=O)N3)NC(=O)[C@H](C(C)C)NC(=O)[C@H](CC(C)C)NC(=O)CNC(=O)[C@H](CCC(=O)O)NC2=O` [compound 7] (H-YCQKWMWTCDSARKCCEGLVCRLWCKKK[αMeL]W-OH; disulfide 2-16, 9-21, 15-25), the IC50 against human Nav1.7 is 0.008 ± 0.001 µM; with Nav1.2 (rBIIa) it was 0.028 ± 0.006 µM.
For `CC[C@H](C)[C@H](NC(=O)[C@H](CCCCN)NC(=O)[C@H](CCCCN)NC(=O)[C@@H]1CSSC[C@@H]2NC(=O)[C@H](CCCCN)NC(=O)[C@H](CCCNC(=N)N)NC(=O)[C@H](C)NC(=O)[C@H](CO)NC(=O)[C@H](CC(=O)O)NC(=O)[C@@H]3CSSC[C@H](NC(=O)[C@H](C(C)C)NC(=O)[C@H](CC(C)C)NC(=O)CNC(=O)[C@H](CCC(=O)O)NC(=O)[C@H](CSSC[C@H](NC(=O)[C@@H](N)Cc4ccc(O)cc4)C(=O)N[C@@H](CCC(N)=O)C(=O)N[C@@H](CCCCN)C(=O)N[C@@H](Cc4c[nH]c5ccccc45)C(=O)N[C@@H](CCSC)C(=O)N[C@@H](Cc4c[nH]c5ccccc45)C(=O)N[C@@H]([C@@H](C)O)C(=O)N3)NC2=O)C(=O)N[C@@H](CCCNC(=N)N)C(=O)N[C@@H](CC(C)C)C(=O)N[C@@H](Cc2c[nH]c3ccccc23)C(=O)N1)C(=O)N[C@H](C(=O)N[C@@H](Cc1c[nH]c2ccccc12)C(=O)O)[C@@H](C)CC` [compound 14] (H-YCQKWMWTCDSARKCCEGLVCRLWCKKIIW-OH; disulfide 2-16, 9-21, 15-25), the IC50 against human Nav1.7 worked out at 0.005 ± 0.001 µM; in the assay on Nav1.2 (rBIIa), 0.045 µM.
For the compound `CC[C@H](C)[C@H](NC(=O)[C@H](CCCCN)NC(=O)[C@H](CCCCN)NC(=O)[C@H](CCCCN)NC(=O)[C@@H]1CSSC[C@@H]2NC(=O)[C@H](CCCCN)NC(=O)[C@H](CCCNC(=N)N)NC(=O)[C@H](C)NC(=O)[C@H](CO)NC(=O)[C@H](CC(=O)O)NC(=O)[C@@H]3CSSC[C@H](NC(=O)[C@H](C(C)C)NC(=O)[C@H](CC(C)C)NC(=O)CNC(=O)[C@H](CCC(=O)O)NC(=O)[C@H](CSSC[C@H](NC(=O)[C@@H](N)Cc4ccc(O)cc4)C(=O)N[C@@H](CCC(N)=O)C(=O)N[C@@H](CCCCN)C(=O)N[C@@H](Cc4c[nH]c5ccccc45)C(=O)N[C@@H](CCSC)C(=O)N[C@@H](Cc4c[nH]c5ccccc45)C(=O)N[C@@H]([C@@H](C)O)C(=O)N3)NC2=O)C(=O)N[C@@H](CCCNC(=N)N)C(=O)N[C@@H](CC(C)C)C(=O)N[C@@H](Cc2c[nH]c3ccccc23)C(=O)N1)C(=O)N[C@@H](CC(C)C)C(=O)N[C@@H](Cc1c[nH]c2ccccc12)C(=O)O` [compound 9] (H-YCQKWMWTCDSARKCCEGLVCRLWCKKKILW-OH; disulfide 2-16, 9-21, 15-25), the IC50 at human Nav1.7 stood at 0.001 µM; in the assay on Nav1.2 (rBIIa), 0.033 µM.
`CC[C@H](C)[C@H](NC(=O)[C@H](CCCNC(=N)N)NC(=O)[C@H](CCCCN)NC(=O)[C@@H]1CSSC[C@@H]2NC(=O)[C@H](CCCCN)NC(=O)[C@H](CCCNC(=N)N)NC(=O)[C@H](CCC(=O)O)NC(=O)[C@H](CCC(=O)O)NC(=O)[C@H](CC(=O)O)NC(=O)[C@@H]3CSSC[C@H](NC(=O)[C@H](C(C)C)NC(=O)[C@H](CC(C)C)NC(=O)CNC(=O)[C@H](CCC(=O)O)NC(=O)[C@H](CSSC[C@H](NC(=O)[C@@H](N)Cc4ccc(O)cc4)C(=O)N[C@@H](CCC(N)=O)C(=O)N[C@@H](CCCCN)C(=O)N[C@@H](Cc4c[nH]c5ccccc45)C(=O)N[C@@H](CCSC)C(=O)N[C@@H](Cc4c[nH]c5ccccc45)C(=O)N[C@@H]([C@@H](C)O)C(=O)N3)NC2=O)C(=O)N[C@@H](CCCNC(=N)N)C(=O)N[C@@H](CC(C)C)C(=O)N[C@@H](Cc2c[nH]c3ccccc23)C(=O)N1)C(=O)N[C@H](C(=O)N[C@@H](CC(N)=O)C(=O)N[C@@H](CCSC)C(=O)O)[C@@H](C)CC` [GsMTx II/PaTX II, reference compound] (H-YCQKWMWTCDEERKCCEGLVCRLWCKRIINM-OH; disulfide 2-16, 9-21, 15-25) came in with an IC50 at human Nav1.7 of 0.26 µM.
Turning to `CC[C@H](C)[C@H](NC(=O)[C@@H](NC(=O)[C@H](CCCCN)NC(=O)[C@H](CCCCN)NC(=O)[C@@H]1CSSC[C@@H]2NC(=O)[C@H](CCCCN)NC(=O)[C@H](CCCNC(=N)N)NC(=O)[C@H](CCC(=O)O)NC(=O)[C@H](CO)NC(=O)[C@H](CC(=O)O)NC(=O)[C@@H]3CSSC[C@H](NC(=O)[C@H](C(C)C)NC(=O)[C@H](CCSC)NC(=O)CNC(=O)[C@H](CCC(=O)O)NC(=O)[C@H](CSSC[C@H](NC(=O)[C@@H](N)Cc4ccc(O)cc4)C(=O)N[C@@H](CCC(N)=O)C(=O)N[C@@H](CCCCN)C(=O)N[C@@H](Cc4c[nH]c5ccccc45)C(=O)N[C@@H](CCSC)C(=O)N[C@@H](Cc4c[nH]c5ccccc45)C(=O)N[C@@H]([C@@H](C)O)C(=O)N3)NC2=O)C(=O)N[C@@H](CCCNC(=N)N)C(=O)N[C@@H](CC(C)C)C(=O)N[C@@H](Cc2c[nH]c3ccccc23)C(=O)N1)[C@@H](C)CC)C(=O)O` [compound 5], the values for the IC50 against human Nav1.7 and with Nav1.2 (rBIIa) were 0.552 ± 0.09 µM and 0.919 ± 0.13 µM, respectively.
For the compound `CC[C@H](C)[C@H](NC(=O)[C@](C)(CC(C)C)NC(=O)[C@H](CCCCN)NC(=O)[C@H](CCCCN)NC(=O)[C@H](CCCCN)NC(=O)[C@@H]1CSSC[C@@H]2NC(=O)[C@H](CCCCN)NC(=O)[C@H](CCCNC(=N)N)NC(=O)[C@H](C)NC(=O)[C@H](CO)NC(=O)[C@H](CC(=O)O)NC(=O)[C@@H]3CSSC[C@H](NC(=O)[C@H](C(C)C)NC(=O)[C@H](CC(C)C)NC(=O)CNC(=O)[C@H](CCC(=O)O)NC(=O)[C@H](CSSC[C@H](NC(=O)[C@@H](N)Cc4ccc(O)cc4)C(=O)N[C@@H](CCC(N)=O)C(=O)N[C@@H](CCCCN)C(=O)N[C@@H](Cc4c[nH]c5ccccc45)C(=O)N[C@@H](CCSC)C(=O)N[C@@H](Cc4c[nH]c5ccccc45)C(=O)N[C@@H]([C@@H](C)O)C(=O)N3)NC2=O)C(=O)N[C@@H](CCCNC(=N)N)C(=O)N[C@@H](CC(C)C)C(=O)N[C@@H](Cc2c[nH]c3ccccc23)C(=O)N1)C(=O)O` [compound 11] (H-YCQKWMWTCDSARKCCEGLVCRLWCKKK[αMeL]I-OH; disulfide 2-16, 9-21, 15-25), the IC50 was 0.01 ± 0.001 µM against human Nav1.7 and 0.342 ± 0.073 µM with Nav1.2 (rBIIa).
In the case of `CC[C@H](C)[C@H](NC(=O)[C@H](CCCCN)NC(=O)[C@H](CCCCN)NC(=O)[C@@H]1CSSC[C@@H]2NC(=O)[C@H](CCCCN)NC(=O)[C@H](CCCNC(=N)N)NC(=O)[C@H](C)NC(=O)[C@H](CO)NC(=O)[C@H](CC(=O)O)NC(=O)[C@@H]3CSSC[C@H](NC(=O)[C@H](C(C)C)NC(=O)[C@H](CC(C)C)NC(=O)CNC(=O)[C@H](CCC(=O)O)NC(=O)[C@H](CSSC[C@H](NC(=O)[C@@H](N)Cc4ccc(O)cc4)C(=O)N[C@@H](CCC(N)=O)C(=O)N[C@@H](CCCCN)C(=O)N[C@@H](Cc4c[nH]c5ccccc45)C(=O)N[C@@H](CCSC)C(=O)N[C@@H](Cc4c[nH]c5ccccc45)C(=O)N[C@@H]([C@@H](C)O)C(=O)N3)NC2=O)C(=O)N[C@@H](CCCNC(=N)N)C(=O)N[C@@H](CC(C)C)C(=O)N[C@@H](Cc2c[nH]c3ccccc23)C(=O)N1)C(=O)N[C@@H](CC(C)C)C(=O)N[C@@H](Cc1c[nH]c2ccccc12)C(=O)O` [compound 13] (H-YCQKWMWTCDSARKCCEGLVCRLWCKKILW-OH; disulfide 2-16, 9-21, 15-25), the IC50 on human Nav1.7 was found to be 0.003 µM; with Nav1.2 (rBIIa), 0.05 ± 0.01 µM.
Taken in the same sequence, the figures for `CSCC[C@@H]1NC(=O)[C@H](Cc2c[nH]c3ccccc23)NC(=O)[C@H](CCCCN)NC(=O)[C@H](CCC(N)=O)NC(=O)[C@@H](NC(=O)[C@@H](N)Cc2ccc(O)cc2)CSSC[C@@H]2NC(=O)[C@@H]3CSSC[C@@H](C(=O)N[C@@H](CCCCN)C(=O)N[C@@H](CCCCN)C(=O)N[C@@H](CCCCN)C(=O)N[C@@H](CC(C)C)C(=O)N[C@@H](Cc4c[nH]c5ccccc45)C(=O)O)NC(=O)[C@H](Cc4c[nH]c5ccccc45)NC(=O)[C@H](CC(C)C)NC(=O)[C@H](CCCNC(=N)N)NC(=O)[C@H](CSSC[C@H](NC(=O)[C@H]([C@@H](C)O)NC(=O)[C@H](Cc4c[nH]c5ccccc45)NC1=O)C(=O)N[C@@H](CC(=O)O)C(=O)N[C@@H](CO)C(=O)N[C@@H](CCC(=O)O)C(=O)N[C@@H](CCCNC(=N)N)C(=O)N[C@@H](CCCCN)C(=O)N3)NC(=O)[C@H](C(C)C)NC(=O)[C@H](CC(C)C)NC(=O)CNC(=O)[C@H](CCC(=O)O)NC2=O` [compound 4] were 0.0017 ± 0.0001 µM and 0.0447 ± 0.015 µM.
